PubChem BioAssay AID328 (DTP/NCI, 2004)
Several values for one entry are separate records, joined by “and”; a condition that tells them apart may be missing. Identical values can stand only once. Inconclusive results and toxic doses are left out. Non-standard residues stand in square brackets, D forms with d. Residues, ends and D or L forms follow the SMILES beside them. ξ: configuration not given here. *: point of attachment. Nphe = O=C(O)CNCc1ccccc1; ξL = CC(C)CC(N)C(=O)O; Ms = CS(=O)(=O)*

Test system: BDF1 mice, P388 leukemia ip, median survival T/C
Experiment: NCI In Vivo Anticancer Drug Screen. Data for tumor model P388 Leukemia (intraperitoneal) in B6D2F1 (BDF1) mice
Settings: endpoint: median survival time, higher = longer survival
In short: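 Antitumour effect was judged in vivo: survival in drug-treated mice, normalised to that of vehicle-dosed controls, gives the reported T/C.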

[1] = dose: 100.0 mg/kg/injection, schedule: Q04DX003 (ip), vehicle: other
[2] = dose: 200.0 mg/kg/injection, schedule: Q04DX003 (ip), vehicle: other
[3] = dose: 400.0 mg/kg/injection, schedule: Q04DX003 (ip), vehicle: other
[4] = dose: 50.0 mg/kg/injection, schedule: Q01DX009 (ip), vehicle: saline with Tween-80
[5] = dose: 100.0 mg/kg/injection, schedule: Q01DX009 (ip), vehicle: saline with Tween-80
[6] = dose: 200.0 mg/kg/injection, schedule: Q01DX009 (ip), vehicle: saline with Tween-80
[7] = dose: 50.0 mg/kg/injection, schedule: Q04DX003 (ip), vehicle: saline sonified
[8] = dose: 50.0 mg/kg/injection, schedule: Q01DX009 (ip), vehicle: saline
[9] = dose: 100.0 mg/kg/injection, schedule: Q01DX009 (ip), vehicle: saline
[10] = dose: 200.0 mg/kg/injection, schedule: Q01DX009 (ip), vehicle: saline
[11] = dose: 100.0 mg/kg/injection, schedule: Q04DX003 (ip), vehicle: Klucel (hydroxypropylcellulose) (HPC)
[12] = dose: 200.0 mg/kg/injection, schedule: Q04DX003 (ip), vehicle: Klucel (hydroxypropylcellulose) (HPC)
[13] = dose: 400.0 mg/kg/injection, schedule: Q04DX003 (ip), vehicle: Klucel (hydroxypropylcellulose) (HPC)

SMILES: CC(C)CC(NC(=O)CN(Cc1ccccc1)S(C)(=O)=O)C(=O)O (stereo not given) (Ms-[Nphe]-[ξL]-OH)
- T/C (dose: 6.25 mg/kg/injection, schedule: Q04DX003 (ip), vehicle: other): 110 % of control
- T/C (dose: 12.5 mg/kg/injection, schedule: Q04DX003 (ip), vehicle: other): 97 % of control
- T/C (dose: 25.0 mg/kg/injection, schedule: Q04DX003 (ip), vehicle: other): 113 % of control
- T/C (dose: 50.0 mg/kg/injection, schedule: Q01DX009 (ip), vehicle: other): 151 % of control
- T/C (dose: 50.0 mg/kg/injection, schedule: Q04DX003 (ip), vehicle: other): 95 % of control and 98 % of control
- T/C [1]: 100 % of control and 103 % of control
- T/C (dose: 200.0 mg/kg/injection, schedule: Q01DX009 (ip), vehicle: other): 89 % of control
- T/C [2]: 98 % of control and 106 % of control
- T/C [3]: 106 % of control

SMILES: CC12CCC(=O)C=C1CCC1C2CCC2(C)C(OP(=O)(N3CC3)N3CC3)CCC12 (stereo not given)
- T/C (dose: 100.0 mg/kg/injection, schedule: Q04DX003 (ip), vehicle: saline with Tween-80): 110 % of control

SMILES: CC1=NN(c2ccccc2)C(=O)C1C(=S)SC1CC(=O)NC1=O (stereo not given)
- T/C [4]: 117 % of control
- T/C [5]: 103 % of control
- T/C [6]: 108 % of control

SMILES: CCCCCCCCCCCCNCCCCCCCCCCCC
- T/C (dose: 1.0 mg/kg/injection, schedule: Q01DX010 (ip), vehicle: other): 100 % of control
- T/C (dose: 2.0 mg/kg/injection, schedule: Q01DX010 (ip), vehicle: other): 100 % of control
- T/C (dose: 3.0 mg/kg/injection, schedule: Q01DX010 (ip), vehicle: other): 90 % of control
- T/C (dose: 3.12 mg/kg/injection, schedule: Q01DX009 (ip), vehicle: Klucel (hydroxypropylcellulose) (HPC)): 100 % of control
- T/C (dose: 3.25 mg/kg/injection, schedule: Q01DX001 (ip), vehicle: Klucel (hydroxypropylcellulose) (HPC)): 100 % of control
- T/C (dose: 4.0 mg/kg/injection, schedule: Q01DX010 (ip), vehicle: other): 100 % of control
- T/C (dose: 6.25 mg/kg/injection, schedule: Q01DX009 (ip), vehicle: Klucel (hydroxypropylcellulose) (HPC)): 90 % of control
- T/C (dose: 6.5 mg/kg/injection, schedule: Q01DX001 (ip), vehicle: Klucel (hydroxypropylcellulose) (HPC)): 100 % of control
- T/C (dose: 8.0 mg/kg/injection, schedule: Q01DX010 (ip), vehicle: water): 100 % of control
- T/C (dose: 12.5 mg/kg/injection, schedule: Q01DX009 (ip), vehicle: Klucel (hydroxypropylcellulose) (HPC)): 95 % of control
- T/C (dose: 13.0 mg/kg/injection, schedule: Q01DX001 (ip), vehicle: Klucel (hydroxypropylcellulose) (HPC)): 100 % of control
- T/C (dose: 18.0 mg/kg/injection, schedule: Q01DX009 (ip), vehicle: Klucel (hydroxypropylcellulose) (HPC)): 95 % of control
- T/C (dose: 60.0 mg/kg/injection, schedule: Q01DX001 (ip), vehicle: Klucel (hydroxypropylcellulose) (HPC)): 100 % of control
- T/C (dose: 90.0 mg/kg/injection, schedule: Q01DX001 (ip), vehicle: Klucel (hydroxypropylcellulose) (HPC)): 100 % of control
- T/C (dose: 130.0 mg/kg/injection, schedule: Q01DX001 (ip), vehicle: Klucel (hydroxypropylcellulose) (HPC)): 105 % of control
- T/C (dose: 135.0 mg/kg/injection, schedule: Q01DX001 (ip), vehicle: Klucel (hydroxypropylcellulose) (HPC)): 104 % of control
- T/C (dose: 200.0 mg/kg/injection, schedule: Q01DX001 (ip), vehicle: Klucel (hydroxypropylcellulose) (HPC)): 115 % of control
- T/C (dose: 300.0 mg/kg/injection, schedule: Q01DX001 (ip), vehicle: Klucel (hydroxypropylcellulose) (HPC)): 110 % of control
- T/C (dose: 305.0 mg/kg/injection, schedule: Q01DX001 (ip), vehicle: Klucel (hydroxypropylcellulose) (HPC)): 109 % of control

SMILES: CN(C)C(CC(=O)c1ccccc1)C(=O)O (stereo not given)
- T/C [7]: 104 % of control

SMILES: CCC(O)Cc1c[nH]c(=O)[nH]c1=O (stereo not given)
- T/C [8]: 90 % of control
- T/C (dose: 50.0 mg/kg/injection, schedule: Q04DX003 (ip), vehicle: saline): 104 % of control
- T/C [9]: 105 % of control
- T/C (dose: 100.0 mg/kg/injection, schedule: Q04DX003 (ip), vehicle: saline): 102 % of control
- T/C [10]: 112 % of control
- T/C (dose: 200.0 mg/kg/injection, schedule: Q04DX003 (ip), vehicle: saline): 109 % of control

SMILES: C=CCn1c2ccccc2c2cc3cnccc3c(C)c21
- T/C [7]: 95 % of control
- T/C (dose: 100.0 mg/kg/injection, schedule: Q04DX003 (ip), vehicle: saline sonified): 90 % of control
- T/C (dose: 200.0 mg/kg/injection, schedule: Q04DX003 (ip), vehicle: saline sonified): 95 % of control

SMILES: CC1CN1C(=O)c1cc(C(=O)N2CC2C)cc(C(=O)N2CC2C)c1 (stereo not given)
- T/C (dose: 8.25 mg/kg/injection, schedule: Q04DX003 (ip), vehicle: saline with Tween-80): 113 % of control
- T/C (dose: 16.5 mg/kg/injection, schedule: Q04DX003 (ip), vehicle: saline with Tween-80): 117 % of control
- T/C (dose: 37.5 mg/kg/injection, schedule: Q01DX009 (ip), vehicle: saline with Tween-80): 166 % of control
- T/C [4]: 163 % of control
- T/C (dose: 66.0 mg/kg/injection, schedule: Q04DX003 (ip), vehicle: saline): 86 % of control
- T/C (dose: 150.0 mg/kg/injection, schedule: Q04DX003 (ip), vehicle: saline): 86 % of control

SMILES: O=S(=O)(OC1=CCCCC1)C(F)(F)F
- T/C [8]: 104 % of control
- T/C [9]: 107 % of control
- T/C [10]: 109 % of control

SMILES: CCCCCCCS(=O)CCCCCCC
- T/C (dose: 6.25 mg/kg/injection, schedule: Q01DX009 (ip), vehicle: saline with Tween-80): 102 % of control
- T/C (dose: 12.5 mg/kg/injection, schedule: Q01DX009 (ip), vehicle: saline with Tween-80): 104 % of control
- T/C (dose: 25.0 mg/kg/injection, schedule: Q01DX009 (ip), vehicle: saline with Tween-80): 95 % of control
- T/C [4]: 104 % of control

SMILES: CCOC(=O)C(C)(C)CN(CC(C)(C)C(=O)OCC)C(C)(C)C
- T/C (dose: 50.0 mg/kg/injection, schedule: Q01DX001 (ip), vehicle: saline): 110 % of control
- T/C (dose: 100.0 mg/kg/injection, schedule: Q01DX001 (ip), vehicle: saline): 120 % of control

SMILES: N#CC1(NC(Cc2ccccc2)c2ccccc2)CCCCCCCCCCC1 (stereo not given)
- T/C [4]: 92 % of control
- T/C [5]: 86 % of control
- T/C [6]: 104 % of control
- T/C (dose: 400.0 mg/kg/injection, schedule: Q01DX009 (ip), vehicle: saline with Tween-80): 102 % of control

SMILES: Cc1[nH]c(N)nc(=S)c1CCC(=O)O
- T/C [11]: 100 % of control
- T/C [12]: 104 % of control
- T/C [13]: 95 % of control

SMILES: Cc1cc(N)c2cc(NC(=O)CCCCCCCCC(=O)Nc3ccc4nc(C)cc(N)c4c3)ccc2n1
- T/C (dose: 5.5 mg/kg/injection, schedule: Q01DX009 (ip), vehicle: Klucel (hydroxypropylcellulose) (HPC)): 108 % of control
- T/C (dose: 8.2 mg/kg/injection, schedule: Q01DX009 (ip), vehicle: Klucel (hydroxypropylcellulose) (HPC)): 121 % of control
- T/C (dose: 8.3 mg/kg/injection, schedule: Q04DX003 (ip), vehicle: Klucel (hydroxypropylcellulose) (HPC)): 91 % of control
- T/C (dose: 12.0 mg/kg/injection, schedule: Q04DX003 (ip), vehicle: Klucel (hydroxypropylcellulose) (HPC)): 104 % of control
- T/C (dose: 45.0 mg/kg/injection, schedule: Q04DX003 (ip), vehicle: Klucel (hydroxypropylcellulose) (HPC)): 150 % of control
- T/C (dose: 50.0 mg/kg/injection, schedule: Q01DX009 (ip), vehicle: Klucel (hydroxypropylcellulose) (HPC)): 186 % of control
- T/C (dose: 80.0 mg/kg/injection, schedule: Q04DX003 (ip), vehicle: Klucel (hydroxypropylcellulose) (HPC)): 168 % of control
- T/C [1]: 172 % of control
- T/C (dose: 120.0 mg/kg/injection, schedule: Q04DX003 (ip), vehicle: Klucel (hydroxypropylcellulose) (HPC)): 172 % of control
- T/C (dose: 180.0 mg/kg/injection, schedule: Q04DX003 (ip), vehicle: Klucel (hydroxypropylcellulose) (HPC)): 177 % of control
- T/C [12]: 150 % of control
- T/C [2]: 181 % of control
- T/C (dose: 264.0 mg/kg/injection, schedule: Q04DX003 (ip), vehicle: Klucel (hydroxypropylcellulose) (HPC)): 227 % of control
- T/C (dose: 400.0 mg/kg/injection, schedule: Q01DX009 (ip), vehicle: Klucel (hydroxypropylcellulose) (HPC)): 160 % of control
- T/C [13]: 261 % of control and 160 % of control
- T/C [3]: 186 % of control

SMILES: CCOC(=O)C[Si](C)(C)C
- T/C (dose: 25.0 mg/kg/injection, schedule: Q04DX003 (ip), vehicle: Klucel (hydroxypropylcellulose) (HPC)): 99 % of control
- T/C (dose: 50.0 mg/kg/injection, schedule: Q04DX003 (ip), vehicle: Klucel (hydroxypropylcellulose) (HPC)): 99 % of control
- T/C [11]: 97 % of control
- T/C [12]: 101 % of control
- T/C [13]: 109 % of control
